From publication PMC5623904, “Structural investigation of nucleophosmin interaction with the tumor suppressor Fbw7γ” (Oncogenesis, 2017)
Peptide text beside a SMILES is read from it. * marks the point of attachment. Dansyl = CN(C)c1cccc2c(S(=O)(=O)*)cccc12

Columns and labels:
Type in all cases: binding
[1] = biological target: T1, Nter-NPM1 D36A-E37A-E39A-E93A (Homo sapiens, UniProt P06748, D36A/E37A/E39A/E93A); test: Equilibrium fluorescence titration, Nter-NPM1 quadruple mutant (E37A); conditions: dansylated peptide 5 μM; sodium phosphate 20 mM pH 7.2, 25 °C; triplicate, ±s.d.; read-out: KD, D36A-E37A-E39A-E93A
T1 construct: inferred from pET28a NdeI/BamHI cloning and HisTrap purification) (N); made in house; host or cells: Escherichia coli BL21(DE3)
Experimental: (§1) Nter-NPM1 mutants were obtained by site-directed mutagenesis using the Quickchange II Lightning Site-Directed Mutagenesis kit (Stratagene, La Jolla, CA, USA), following manufacturer’s instructions. Oligonucleotides used for PCR were obtained from Primm Biotech (Milan, Italy). Forward oligonucleotides used are reported in Supplementary Table 2.
(§2) All experiments were performed at 25 °C in sodium phosphate buffer 20 mM pH 7.2, or in sodium phosphate buffer 20 mM plus 100 mM NaCl pH 7.2 (which sets ionic strength to 150 mM), using a FluoroMax-4 spectrofluorometer (Jobin Yvon, Edison, NJ, USA), equipped with a water bath apparatus. Fbw7γ and CENP-W peptides, functionalized with a dansyl (5-dimetilamminonaftalen-1-sulphonyl) group at their N terminus, were purchased from JPT (Germany). Tat peptide was synthesized employing the solid phase method following standard Fmoc strategies and labeled with dansyl fluorophore at its N terminus. Crude product was purified by RP-HPLC applying a linear gradient of 0.1% TFA CH3CN in 0.1% TFA water from 5% to 65% over 12 min using a semi-preparative 2.2 × 5 cm C18 column at a flow rate of 20 ml/min. Purity and identity were confirmed by LC–MS analysis.
(§3) Titration experiments were conducted with an excitation wavelength of 330 nm while the fluorescence emission spectra were collected in the range between 350 and 650 nm. Titrations were performed at constant peptide concentration (5 μM) and varying protein concentrations (from 0 to 200/400 μM). Titrations were performed in triplicate and data, analyzed with the Graphpad Prism software (https://www.graphpad.com/scientific-software/prism/), were reported as dissociation constant±s.d.
(§4) Equilibrium binding curves were fitted to the standard quadratic equation: […]
(§5) where F is the observed fluorescence signal, n and [A]0 are the total concentration of non-varied and varied species, respectively, and KD is the equilibrium dissociation constant. B and C are constants taking into account the total fluorescence change and fluorescence at [A]0=0, respectively, and k is a term describing the slope of the curve at high protein concentration. Whenever possible, under pseudo first-order conditions, the equation 1 was simplified to: […]

[2] = biological target: T2, Nter-NPM1 D36A-E37A-E39A-E93A-E121A (Homo sapiens, UniProt P06748, D36A/E121A/E37A/E39A/E93A); test: Equilibrium fluorescence titration, Nter-NPM1 quintuple mutant; conditions: dansylated peptide 5 μM; sodium phosphate 20 mM pH 7.2, 25 °C; triplicate, ±s.d.
T2 construct: inferred from pET28a NdeI/BamHI cloning and HisTrap purification) (N); made in house; host or cells: Escherichia coli BL21(DE3)
Experimental: as §1, §2, §3, §4, §5

[3] = biological target: T3, Nter-NPM1 D36A-E39A-E93A-E121A (Homo sapiens, UniProt P06748, D36A/E121A/E39A/E93A); test: Equilibrium fluorescence titration, Nter-NPM1 quadruple mutant (E121A); conditions: dansylated peptide 5 μM; sodium phosphate 20 mM pH 7.2, 25 °C; triplicate, ±s.d.
T3 construct: inferred from pET28a NdeI/BamHI cloning and HisTrap purification) (N); made in house; host or cells: Escherichia coli BL21(DE3)
Experimental: as §1, §2
as §3, with “constant±s.d. […]” for “constant±s.d.”
as §5, with “concentration.” for “concentration. Whenever possible, under pseudo first-order conditions, the equation 1 was simplified to:”

[4] = biological target: T4, Nter-NPM1 (residues 16-123) (Homo sapiens, UniProt P06748); test: Equilibrium fluorescence titration of dansylated peptide with Nter-NPM1; conditions: SD; read-out: Nter-NPM1 KD
T4 construct: inferred from pET28a NdeI/BamHI cloning and HisTrap purification) (N); made in house; host or cells: Escherichia coli BL21(DE3)
Experimental: as §2, §3, §4, §5

[5] = biological target: T5, Nter-NPM1 D36A-E39A-E93A (Homo sapiens, UniProt P06748, D36A/E39A/E93A); test: Equilibrium fluorescence titration, Nter-NPM1 triple mutant; conditions: dansylated peptide 5 μM; sodium phosphate 20 mM pH 7.2, 25 °C; triplicate, ±s.d.; read-out: KD, D36A-E39A-E93A
T5 construct: inferred from pET28a NdeI/BamHI cloning and HisTrap purification) (N); made in house; host or cells: Escherichia coli BL21(DE3)
Experimental: as §1, §2, §3, §4, §5

T3 sequence (P06748 16-123 D36A/E39A/E93A/E121A): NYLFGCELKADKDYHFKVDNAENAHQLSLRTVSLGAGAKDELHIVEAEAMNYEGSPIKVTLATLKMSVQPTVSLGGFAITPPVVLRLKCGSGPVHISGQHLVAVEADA
T1 sequence (P06748 16-123 D36A/E37A/E39A/E93A): as the sequence (P06748 16-123 D36A/E39A/E93A/E121A) above, with E22A, A106E counted along it
T4 sequence (P06748 16-123): as the sequence (P06748 16-123 D36A/E39A/E93A/E121A) above, with A21D, A24E, A78E, A106E counted along it
T5 sequence (P06748 16-123 D36A/E39A/E93A): as the sequence (P06748 16-123 D36A/E39A/E93A/E121A) above, with A106E counted along it
T2 sequence (P06748 16-123 D36A/E37A/E39A/E93A/E121A): as the sequence (P06748 16-123 D36A/E39A/E93A/E121A) above, with E22A counted along it

- Kd [1]: 71.4 ± 9.1 µM
- Kd [2]: 734 ± 158 µM
- Kd [3]: 82.8 ± 5.6 µM
- Kd [4]: 6.2 ± 0.9 µM
- Kd [5]: 18.4 ± 2.6 µM
SMILES: CC(C)C[C@H](NC(=O)[C@H](Cc1ccccc1)NC(=O)CNC(=O)[C@H](CCCNC(=N)N)NC(=O)[C@@H]1CCCN1C(=O)[C@H](C)NC(=O)[C@H](CCCCN)NC(=O)[C@H](CCCNC(=N)N)NC(=O)[C@H](CCCCN)NS(=O)(=O)c1cccc2c(N(C)C)cccc12)C(=O)N[C@@H](CCCCN)C(=O)N[C@@H](CCCNC(=N)N)C(=O)N[C@H](C(=O)N[C@@H](Cc1ccccc1)C(=O)N[C@@H](CCCCN)C(=O)N[C@@H](CCCNC(=N)N)C(=O)N[C@@H](CCCCN)C(=O)N[C@@H](CCCCN)C(=O)O)C(C)C [CENP-W*] (Dansyl-KRKAPRGFLKRVFKRKK-OH)
